This passage reports IC50 and EC50 results from patent publication US10030016B2 (Sunesis Pharmaceuticals, Inc., priority 2009, dated 2018).

The target of one experiment is PDK1 (Homo sapiens (Human), UniProt O15530). The experiment can be described thus: PDK1 kinase assay (coupled PDK1/AKT/FAM-crosstide assay, IMAP fluorescence polarization). The experiment is classed as biochemical. Put shortly:
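PDK1 activity is measured indirectly through activation of a PIFtide-fused AKT2 construct that phosphorylates FAM-crosstide (100 nM). The reaction uses 0.75 nM PDK1, 40 μM ATP, 30 min, 25° C, with IMAP polarization detection.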

Experiment [1] deals with phospho-akt (Thr308) in PC-3 cells. The experiment can be described thus: Inhibition of phospho-akt (Thr308) in PC-3 cells, MSD phospho-akt 308 ELISA kit. The format is cell-based. The conditions noted are these: 2 hours, no serum, read-out: EC50. In a few lines:
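Electrochemiluminescent MSD ELISA of Thr308-phosphorylated Akt after a 2 h serum-free compound exposure of PC-3 cells (15,000/well, plated overnight). Controls: DMSO (high), 5 μM wortmannin (low). Lysate binding overnight at 4 °C; detection antibody 1 h at room temperature.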

Setting [2] is: inhibition of phospo-PDK1 in vitro.
Setting [3] is: Homo sapiens, inhibition of P308 Akt in PC-3 cells, MSD.
[4] abbreviates: Homo sapiens, inhibition of P308 Akt in PC-3 cells using MSD.

Structures can show the parent of a compound that is named as a salt. Where two headings read alike, the source gives them in different places.

PDK1, sequence (O15530 51-359): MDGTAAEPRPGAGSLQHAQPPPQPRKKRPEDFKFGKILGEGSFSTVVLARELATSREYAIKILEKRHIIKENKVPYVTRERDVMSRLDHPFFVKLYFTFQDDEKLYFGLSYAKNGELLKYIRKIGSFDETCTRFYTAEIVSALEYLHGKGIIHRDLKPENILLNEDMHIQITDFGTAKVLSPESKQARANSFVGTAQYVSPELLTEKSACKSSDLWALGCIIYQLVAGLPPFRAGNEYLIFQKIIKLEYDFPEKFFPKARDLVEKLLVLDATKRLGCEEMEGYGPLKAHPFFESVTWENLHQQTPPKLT

In turn, `Nc1cnc(NCc2ccc(-c3ccc4ncnc(N)c4c3)s2)c(C(=O)NCc2ccc(F)c(F)c2)c1` [Ex. 8.4, 2-({[5-(4-aminoquinazolin-6-yl)thiophen-2-yl]methyl}amino)-N-(3,4-difluorobenzyl)-5-aminopyridine-3-carboxamide] gave an IC50 against PDK1 (setting [2]) of less than 0.1 µM. Further, in experiment [1] (setting [3]), the EC50 lay within 1 to 10 µM.
`N#Cc1cnc(NCc2ccc(-c3cnc4[nH]c(=O)[nH]c4c3)cc2)c(C(=O)NCc2ccc(F)c(F)c2)c1` [Example 356, 5-cyano-N-(3,4-difluorobenzyl)-2-(4-(2-oxo-2,3-dihydro-1H-imidazo[4,5-b]pyridin-6-yl)benzylamino)nicotinamide] displayed an IC50 on PDK1 (inhibition of PDK1 in vitro) of less than 0.1 µM. Further, the EC50 in experiment [1] (setting [4]) is less than 1 µM.
As to `COc1ccnc(NCc2ccc(-c3ccc4ncnc(N)c4c3)s2)c1C(=O)NCc1ccc(F)c(F)c1` [Ex. 7.4, 2-({[5-(4-aminoquinazolin-6-yl)thiophen-2-yl]methyl}amino)-N-(3,4-difluorobenzyl)-4-methoxypyridine-3-carboxamide], the IC50 on PDK1 (setting [2]) lay within 0.1 to 1 µM. Also, in experiment [1] (setting [3]), the EC50 is greater than 10 µM.
The compound `Cc1ccc(Nc2ncccc2C(=O)NCc2ccc(F)c(F)c2)cc1-c1ccc2c(c1)CNC2=O` [Example 17.2] displayed an IC50 on PDK1 (setting [2]) greater than 5 µM. The 50% effective concentration (EC50) in experiment [1] (setting [3]) was greater than 10 µM.
For `C[C@H](NC(=O)c1cc(C#N)cnc1NCc1ccc(-c2cnc(N)c(N3CCC[C@H](N)C3)n2)cc1)c1ccc(F)cc1` [Example 197], the IC50 on PDK1 (inhibition of PDK1 in vitro) was less than 0.1 µM. Moreover, the EC50 in experiment [1] (setting [4]) is less than 1 µM.
Take `CCCNS(=O)(=O)c1cnc(NCc2ccc(-c3ccc4ncnc(N)c4c3)s2)c(C(=O)NC)c1` [Example 8.6.11, 2-(((5-(4-aminoquinazolin-6-yl)thiophen-2-yl)methyl)amino)-N-methyl-5-(N-propylsulfamoyl) nicotinamide]: the half-maximal inhibitory concentration (IC50) against PDK1 (setting [2]) is greater than 5 µM. Besides, the EC50 in experiment [1] (setting [3]) is greater than 10 µM.
As for `Nc1n[nH]c2ncc(-c3ccc(CNc4ncc(C(F)(F)F)cc4C(=O)NCc4ccc(Cl)c(F)c4)cc3)cc12` [Example 419, 2-(4-(3-amino-1H-pyrazolo [3,4-b]pyridin-5-yl)benzylamino)-N-(4-chloro-3-fluorobenzyl)-5-(trifluoromethyl)nicotinamide], on PDK1 (inhibition of PDK1 in vitro), the half-maximal inhibitory concentration (IC50) is less than 0.1 µM. Besides, the EC50 in experiment [1] (setting [4]) lay within 1 to 10 µM.
The corresponding values for `C[C@H](NC(=O)c1cc(C#N)cnc1NCc1ccc(-c2cnc(N)c(-c3cccc(N)c3)n2)cc1)c1ccc(F)cc1` [Example 237, 2-{4-[5-Amino-6-(3-amino-phenyl)-pyrazin-2-yl]-benzylamino}-5-cyano-N-[(S)-1-(4-fluoro-phenyl)-ethyl]-nicotinamide] are less than 0.1 µM and less than 1 µM.
On PDK1 (inhibition of PDK1 in vitro), `O=C(NCc1ccc(F)c(F)c1)c1cccnc1NCc1ccc(-c2cnc3[nH]ncc3c2)nc1` [Example 327] returned an IC50 of less than 0.1 µM. In experiment [1] (setting [4]), the EC50 lay in the range of 1 to 10 µM.
Compound `Cc1cccc(Cl)c1NC(=O)c1cc(C(F)(F)F)cnc1NCc1ccc(-c2cnc3[nH]nc(N)c3c2)cc1` [Example 438, 2-(4-(3-amino-1H-pyrazolo[3,4-b]pyridin-5-yl)benzylamino)-N-(2-chloro-6-methyl-phenyl)-5-(trifluoro-methyl)nicotinamide] yielded an IC50 against PDK1 (inhibition of PDK1 in vitro) of 1 to 5 µM. Besides, in experiment [1] (Homo sapiens, PC-3, 2 h, inhibition of P308 Akt in PC-3 cells using MSD), the EC50 is greater than 10 µM.
Take `COC(=O)c1cc(-c2ccc(CNc3ncc(C#N)cc3C(=O)N[C@@H](C)c3ccc(F)cc3)cc2)cnc1N` [Example 103, (S)-methyl 2-amino-5-(4-((5-cyano-3-(1-(4-fluorophenyl)ethylcarbamoyl)pyridin-2-ylamino)methyl)phenyl)nicotinate]: the half-inhibitory concentration (IC50) against PDK1 (inhibition of PDK1 in vitro) was less than 0.1 µM. Further, the EC50 in experiment [1] (setting [4]) is 1 to 10 µM.
In turn, `C#CCNC(=O)c1cccnc1NCc1cc(OC(C)C)cc(-c2c[nH]c3ncc(C(=O)NC4CC4)cc23)c1` [Example 4.1.16, N-cyclopropyl-3-[3-(propan-2-yloxy)-5-({[3-(prop-2-yn-1-ylcarbamoyl)pyridin-2-yl]amino}methyl)phenyl]-1H-pyrrolo[2,3-b] pyridine-5-carboxamide] came in with an IC50 at PDK1 (setting [2]) of 0.1 to 1 µM. The EC50 in experiment [1] (setting [3]) lay in the range of 1 to 10 µM.
At PDK1 (inhibition of PDK1 in vitro), `C[C@H](NC(=O)c1cc(C#N)cnc1NCc1ccc(-c2cnc(N)cn2)cc1F)c1ccc(F)cc1` [Example 130, (S)-2-(4-(5-aminopyrazin-2-yl)-2-fluorobenzylamino)-5-cyano-N-(1-(4-fluorophenyl)ethyl) nicotinamide] gave a half-inhibitory concentration (IC50) of less than 0.1 µM. Also, the EC50 in experiment [1] (setting [4]) was 1 to 10 µM.
With `Cc1nc2cnc3ccc(-c4ccc(CNc5ncccc5C(=O)N[C@@H](C)c5ccc(F)cc5)s4)cc3c2n1C` [Example 2.19, (S)-2-(((5-(1,2-dimethyl-1H-imidazo[4,5-c]quinolin-8-yl)thiophen-2-yl)methyl)amino) N-(1-(4-fluorophenyl)ethyl) nicotinamide], the IC50 at PDK1 (setting [2]) lay in the range of 0.1 to 1 µM. Further, in experiment [1] (setting [3]), the concentration giving a half-maximal response (EC50) is less than 1 µM.
On the same counts, the results for `CC(C)Oc1cc(CNc2ncccc2C(=O)Nc2ccc(F)c(F)c2)cc(-c2c[nH]c3ncc(C(=O)NC4CC4)cc23)c1` [Example 4.1.1, N-cyclopropyl-3-(3-((3-(3,4-difluorophenylcarbamoyl)pyridin-2-ylamino)methyl)-5-isopropoxyphenyl)-1H-pyrrolo[2,3-b]pyridine-5-carboxamide] are 0.1 to 1 µM and greater than 10 µM.
The corresponding values for `Cc1nc(/C=C2\C(=O)Nc3cc(/C=C/CNc4ncccc4C(=O)NCc4ccc(F)c(F)c4)ccc32)[nH]c1C` [Example 15.13, N-(3,4-Difluoro-benzyl)-2-((E)-3-{3-[1-(4,5-dimethyl-1H-imidazol-2-yl)-meth-(Z)-ylidene]-2-oxo-2,3-dihydro-1H-indol-6-yl}-allylamino)-nicotinamide] are less than 0.1 µM and 1 to 10 µM.
Compound `N#Cc1cnc(NCc2ccc(-c3cnc4[nH]nc(N)c4c3)cc2)c(C(=O)NCc2cncc(F)c2)c1` [Example 311, 2-(4-(3-amino-1H-pyrazolo [3,4-b]pyridin-5-yl)benzylamino)-5-cyano-N-((5-fluoropyridin-3-yl)-5-methyl)nicotinamide] showed an IC50 at PDK1 (inhibition of PDK1 in vitro) of less than 0.1 µM. In addition, the EC50 in experiment [1] (setting [4]) is less than 1 µM.
Consider `Nc1ncnc2ccc(-c3ccc(CNc4ncccc4C(=O)Nc4ccc(F)c(Cl)c4)s3)cc12` [Example 3.49, 2-({[5-(4-aminoquinazolin-6-yl)thiophen-2-yl]methyl}amino)-N-(3-chloro-4-fluorophenyl) pyridine-3-carboxamide (TFA salt)], for which the IC50 at PDK1 (setting [2]) fell in the range of 0.1 to 1 µM. The concentration for a half-maximal effect (EC50) in experiment [1] (setting [3]) lay in the range of 1 to 10 µM.
`C[C@H](NC(=O)c1cc(C#N)cnc1NCc1ccc(-c2c[nH]c3ncnc(N)c23)cc1F)c1ccc(F)cc1` [Example 99, (S)-2-(4-(4-amino-7H-pyrrolo[2,3-d]pyrimidin-5-yl)-2-fluorobenzylamino)-5-cyano-N-(1-(4-fluorophenyl)ethyl) nicotinamide] displayed an IC50 at PDK1 (inhibition of PDK1 in vitro) of less than 0.1 µM. Besides, the EC50 in experiment [1] (inhibition of P308 Akt in PC-3 cells using MSD) is less than 1 µM.
In the case of `CNC(=O)c1cc(S(=O)(=O)N2CCN(C)CC2)cnc1NCc1ccc(-c2ccc3ncnc(N)c3c2)s1` [Example 8.6.12, 2-(((5-(4-aminoquinazolin-6-yl)thiophen-2-yl)methyl)amino)-N-methyl-5-(4-methylpiperazin-1-ylsulfonyl)nicotinamide], the IC50 against PDK1 (setting [2]) was greater than 5 µM. Further, the EC50 in experiment [1] (setting [3]) was greater than 10 µM.
`C[C@H](NC(=O)c1cc(C#N)cnc1NCc1ccc(-c2ccc3c(N)ncnn23)cc1)c1ccc(F)cc1` [Example 178, 2-[4-(4-Amino-pyrrolo [2,1-f][1,2,4]triazin-7-yl)-benzylamino]-5-cyano-N-[(S)-1-(4-fluoro-phenyl)-ethyl]-nicotinamide] displayed an IC50 at PDK1 (inhibition of PDK1 in vitro) of less than 0.1 µM. The EC50 in experiment [1] (setting [4]) is 1 to 10 µM.
For `CC(=O)Nc1cnc(NCc2ccc(-c3ccc4ncnc(N)c4c3)s2)c(C(=O)NCc2ccc(F)c(F)c2)c1` [Ex. 8.5.1, 5-(acetylamino)-2-({[5-(4-aminoquinazolin-6-yl)thiophen-2-yl]methyl}amino)-N-(3,4-difluorobenzyl)pyridine-3-carboxamide], the IC50 on PDK1 (setting [2]) is less than 0.1 µM. Also, the EC50 in experiment [1] (setting [3]) lay in the range of 1 to 10 µM.
Regarding `N#Cc1cnc(N[C@@H](COc2ccc3[nH]c(=O)[nH]c3c2)c2ccccc2)c(C(=O)NCc2ccc(F)c(F)c2)n1` [Example 16.11, (R)-6-cyano-N-(3,4-difluorobenzyl)-3-(2-(2-oxo-2,3-dihydro-1H-benzo[d]imidazol-5-yloxy)-1-phenylethylamino) pyrazine-2-carboxamide], the IC50 at PDK1 (setting [2]) is less than 0.1 µM. Moreover, in experiment [1] (setting [3]), the EC50 was less than 1 µM.
As to `C[C@H](NC(=O)c1c(NCc2ccc(-c3ccc4ncnc(N)c4c3)s2)ncc(Br)c1N)c1ccc(F)c(F)c1` [Example 3.87], on PDK1 (setting [2]), the IC50 is 1 to 5 µM. For the same compound, in experiment [1] (setting [3]), the EC50 was greater than 10 µM.
In turn, `C[C@H](NC(=O)c1nc(C#N)cnc1N[C@@H](CO)c1ccc(-c2cnc3[nH]nc(N)c3c2)cc1)c1ccc(F)c(F)c1` [Example 351, 3-((R)-1-(4-(3-amino-1H-pyrazolo[3,4-b]pyridin-5-yl)phenyl)-2-hydroxy-ethylamino)-6-cyano-N-((S)-1-(3,4-difluorophenyl)ethyl)pyrazine-2-carboxamide] came in with an IC50 at PDK1 (inhibition of PDK1 in vitro) of 1 to 5 µM. The EC50 in experiment [1] (setting [4]) is greater than 10 µM.
`Cc1nc[nH]c1/C=C1\C(=O)Nc2cc(/C=C/CNc3ncccc3C(=O)NCc3ccc(F)c(F)c3)ccc21` [Example 15.7, N-(3,4-Difluoro-benzyl)-2-((E)-3-{3-[1-(5-methyl-3H-imidazol-4-yl)-meth-(Z)-ylidene]-2-oxo-2,3-dihydro-1H-indol-6-yl}-allylamino)-nicotinamide] showed an IC50 at PDK1 (setting [2]) of less than 0.1 µM. Further, the EC50 in experiment [1] (setting [3]) is less than 1 µM.
